For experiment [1], the target named is T1, NPY Y1 receptor (Homo sapiens, UniProt P25929).
T1 construct: SK-N-MC cells endogenously expressing Y1; host or cells: SK-N-MC
T1 sequence (P25929 1-384): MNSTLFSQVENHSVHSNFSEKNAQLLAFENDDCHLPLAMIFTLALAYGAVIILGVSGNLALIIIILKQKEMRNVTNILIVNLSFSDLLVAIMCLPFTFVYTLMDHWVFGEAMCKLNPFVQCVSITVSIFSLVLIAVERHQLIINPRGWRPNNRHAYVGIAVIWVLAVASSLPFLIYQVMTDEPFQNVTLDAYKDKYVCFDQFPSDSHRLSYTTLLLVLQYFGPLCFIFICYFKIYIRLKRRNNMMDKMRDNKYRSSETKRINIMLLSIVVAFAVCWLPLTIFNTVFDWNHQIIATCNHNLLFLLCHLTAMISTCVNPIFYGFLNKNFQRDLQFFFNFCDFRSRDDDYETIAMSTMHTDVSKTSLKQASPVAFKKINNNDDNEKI
Description: Receptor autoradiography competition binding (125I-hPYY) on SK-N-MC cell membrane pellet sections. Conditions: for IC50: SK-N-MC membrane pellets, 125I-hPYY displacement, mean ± SEM, n ≥ 3, read-out: Binding affinity Y1 (IC50). The procedure:
(§1) The neuroepithelioma cell line SK-N-MC endogenously expressing the NPY Y1 receptor was obtained from ATCC (HTB-10; LGC Standards, Teddington, Middlesex, UK) and cultured at 37°C and 5% CO2 in MEM with GlutaMax I and supplemented with 10% FBS, 100 U/ml penicillin and 100 μg/ml streptomycin, 1 mM MEM sodium pyruvate, and MEM non-essential amino acids (× 1). The neuroblastoma cell line SH-SY5Y endogenously expressing the NPY Y2 receptor, kindly provided by Dr. Paolo Paganetti (Novartis, Basel, Switzerland), was cultured at 37°C and 5% CO2 in MEM/Ham's F12 with GlutaMax I and supplemented with 10% FBS, 100 U/ml penicillin and 100 μg/ml streptomycin, 1 mM MEM sodium pyruvate, and MEM non-essential amino acids (× 1). All culture reagents were from Gibco BRL, Life Technologies, (Grand Island, NY, USA).
(§2) Binding affinities of the compounds were assessed using sections of cell membrane pellets of SK-N-MC for Y1 or SH-SY5Y for Y2, as described before. Briefly, membrane pellets were prepared and stored at -80°C, and receptor autoradiography was performed on 20-μm-thick cryostat (Microm HM 500, Walldorf, Germany) sections of the membrane pellets, mounted on microscope slides and stored at -20°C as previously described for other cell lines and receptors. The slides were preincubated in Krebs-Ringer solution (NaCl 119 mM, KCl 3.2 mM, KH2PO4 1.19 mM, MgSO4 1.19 mM, NaHCO3 25 mM, CaCl2 2.53 mM, D-glucose 10 mM; pH 7.4) for 60 min at room temperature. Then, they were incubated for 120 min in the incubation solution containing the Krebs-Ringer solution, 0.1% BSA, 0.05% bacitracin, and 10,000 cpm/100 μl of the ^125I-labeled human PYY (hPYY; 2,000 Ci/mmol; Anawa, Wangen, Switzerland). Membrane pellet sections were incubated with ^125I-hPYY in increasing concentrations ranging from 0.1 nM up to 1,000 nM of non-labeled hPYY, as control, or with the compounds to be tested. After the incubation, the slides were washed two times for 5 min and then rinsed four times in ice-cold preincubation solution. After drying, the slides were exposed to Kodak films Biomax MR® for 7 days. IC50 values were calculated after quantification of the data using a computer-assisted image processing system (Analysis Imaging System, Interfocus, Mering, Germany). Tissue standards (autoradiographic [^125I] and/or [^14C] microscales, GE Healthcare, Little Chalfont, UK) containing a known amount of isotope, cross-calibrated to tissue-equivalent ligand concentrations were used for quantification.

In experiment [2] the target is T2, NPY Y2 receptor (Homo sapiens, UniProt P49146).
T2 construct: SH-SY5Y cells endogenously expressing Y2; endogenous in cells; host or cells: SH-SY5Y
T2 sequence (P49146 1-381): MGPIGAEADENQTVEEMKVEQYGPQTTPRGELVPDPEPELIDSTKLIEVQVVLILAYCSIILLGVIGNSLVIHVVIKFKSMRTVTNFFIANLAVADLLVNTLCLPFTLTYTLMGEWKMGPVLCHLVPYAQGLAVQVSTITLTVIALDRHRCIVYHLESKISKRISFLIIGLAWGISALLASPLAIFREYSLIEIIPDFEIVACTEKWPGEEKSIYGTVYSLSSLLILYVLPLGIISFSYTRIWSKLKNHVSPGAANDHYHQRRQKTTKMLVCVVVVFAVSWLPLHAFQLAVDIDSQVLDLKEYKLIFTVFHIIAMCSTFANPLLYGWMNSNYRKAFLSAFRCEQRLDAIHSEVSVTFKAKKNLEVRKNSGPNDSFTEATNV
Description: Receptor autoradiography competition binding (125I-hPYY) on SH-SY5Y cell membrane pellet sections. Conditions: SH-SY5Y membrane pellets, 125I-hPYY displacement; n ≥ 3; read-out: Binding affinity Y2 (IC50). The method, then: as §1, §2

Bridge positions count the residues as written; N and C are the ends. Square brackets hold non-standard residues; d marks the D form. Peptide text beside a SMILES is read from it. I, II: the chains in the order shown. * marks the point of attachment. DOTA = O=C(O)CN1CCN(CC(=O)O)CCN(CC(=O)*)CCN(CC(=O)O)CC1; Nle = CCCC[C@H](N)C(=O)O; Dap = NC[C@H](N)C(=O)O

Consider `CC[C@H](C)[C@H](N)C(=O)N[C@@H](CC(N)=O)C(=O)N1CCC[C@H]1C(=O)N[C@@H](CSSC[C@H](NC(=O)[C@@H]1CCCN1C(=O)[C@H](CC(N)=O)NC(=O)[C@@H](N)[C@@H](C)CC)C(=O)N[C@@H](Cc1ccc(O)cc1)C(=O)N[C@@H](CCCNC(=N)N)C(=O)N[C@@H](CC(C)C)C(=O)N[C@@H](CCCNC(=N)N)C(=O)N[C@@H](Cc1ccc(O)cc1)C(N)=O)C(=O)N[C@@H](Cc1ccc(O)cc1)C(=O)N[C@@H](CCCNC(=N)N)C(=O)N[C@@H](CC(C)C)C(=O)N[C@@H](CCCNC(=N)N)C(=O)N[C@@H](Cc1ccc(O)cc1)C(N)=O` [Analog 1, Bis(31/31')[Pro^30, Cys^31, Tyr^32, Leu^34]NPY(28-36)-NH2, reference compound] (I: H-INPCYRLRY-NH2 / II: H-INPCYRLRY-NH2; disulfide I:4-II:4), for which the IC50 in experiment [1] is 11 ± 7 nM; in experiment [2] it was over 1000 nM.

Consider `CCCC[C@H](NC(=O)[C@H](CCCNC(=N)N)NC(=O)[C@H](Cc1c[nH]c2ccccc12)NC(=O)[C@H](CSSC[C@H](NC(=O)[C@@H]1CCCN1C(=O)[C@H](CC(N)=O)NC(=O)[C@@H](NC(=O)CN1CCN(CC(=O)O)CCN(CC(=O)O)CCN(CC(=O)O)CC1)[C@@H](C)CC)C(=O)N[C@@H](Cc1c[nH]c2ccccc12)C(=O)N[C@@H](CCCNC(=N)N)C(=O)N[C@@H](CCCC)C(=O)N[C@@H](CCCNC(=N)N)C(=O)N[C@@H](Cc1ccc(O)cc1)C(N)=O)NC(=O)[C@@H]1CCCN1C(=O)[C@H](CC(N)=O)NC(=O)[C@@H](NC(=O)CN1CCN(CC(=O)O)CCN(CC(=O)O)CCN(CC(=O)O)CC1)[C@@H](C)CC)C(=O)N[C@@H](CCCNC(=N)N)C(=O)N[C@@H](Cc1ccc(O)cc1)C(N)=O` [Analog 4] (I: {DOTA}-INPCWR[Nle]RY-NH2 / II: {DOTA}-INPCWR[Nle]RY-NH2; disulfide I:4-II:4), for which the results for the IC50 in experiment [1] and in experiment [2] were 294 ± 33 nM and over 1000 nM, respectively. On the same counts, the results for `CCCC[C@H](NC(=O)[C@H](CCCNC(=N)N)NC(=O)[C@H](Cc1c[nH]c2ccccc12)NC(=O)[C@H](CSSC[C@H](NC(=O)[C@@H]1CCCN1C(=O)[C@H](CC(N)=O)NC(=O)[C@@H](N)[C@@H](C)CC)C(=O)N[C@@H](Cc1c[nH]c2ccccc12)C(=O)N[C@@H](CCCNC(=N)N)C(=O)N[C@@H](CCCC)C(=O)N[C@@H](CCCNC(=N)N)C(=O)N[C@@H](Cc1ccc(O)cc1)C(N)=O)NC(=O)[C@@H]1CCCN1C(=O)[C@H](CC(N)=O)NC(=O)[C@@H](N)[C@@H](C)CC)C(=O)N[C@@H](CCCNC(=N)N)C(=O)N[C@@H](Cc1ccc(O)cc1)C(N)=O` [Analog 3] (I: H-INPCWR[Nle]RY-NH2 / II: H-INPCWR[Nle]RY-NH2; disulfide I:4-II:4) are 9 ± 3 nM and over 1000 nM. On the same counts, the results for `CCCC[C@H](NC(=O)[C@H](CCCNC(=N)N)NC(=O)[C@H](Cc1c[nH]c2ccccc12)NC(=O)[C@H](CSSC[C@H](NC(=O)[C@@H]1CCCN1C(=O)[C@H](CCCCN)NC(=O)[C@@H](N)[C@@H](C)CC)C(=O)N[C@@H](Cc1c[nH]c2ccccc12)C(=O)N[C@@H](CCCNC(=N)N)C(=O)N[C@@H](CCCC)C(=O)N[C@@H](CCCNC(=N)N)C(=O)N[C@@H](Cc1ccc(O)cc1)C(N)=O)NC(=O)[C@@H]1CCCN1C(=O)[C@H](CCCCN)NC(=O)[C@@H](N)[C@@H](C)CC)C(=O)N[C@@H](CCCNC(=N)N)C(=O)N[C@@H](Cc1ccc(O)cc1)C(N)=O` [Analog 9] (I: H-IKPCWR[Nle]RY-NH2 / II: H-IKPCWR[Nle]RY-NH2; disulfide I:4-II:4) are 127 ± 50 nM and over 1000 nM. In the same order, the values of `CC[C@H](C)[C@H](NC(=O)CN1CCN(CC(=O)O)CCN(CC(=O)O)CCN(CC(=O)O)CC1)C(=O)N[C@@H](CC(N)=O)C(=O)N1CCC[C@H]1C(=O)N[C@@H](CSSC[C@H](NC(=O)[C@@H]1CCCN1C(=O)[C@H](CC(N)=O)NC(=O)[C@@H](NC(=O)CN1CCN(CC(=O)O)CCN(CC(=O)O)CCN(CC(=O)O)CC1)[C@@H](C)CC)C(=O)N[C@@H](Cc1ccc(O)cc1)C(=O)N[C@@H](CCCNC(=N)N)C(=O)N[C@@H](CC(C)C)C(=O)N[C@@H](CCCNC(=N)N)C(=O)N[C@@H](Cc1ccc(O)cc1)C(N)=O)C(=O)N[C@@H](Cc1ccc(O)cc1)C(=O)N[C@@H](CCCNC(=N)N)C(=O)N[C@@H](CC(C)C)C(=O)N[C@@H](CCCNC(=N)N)C(=O)N[C@@H](Cc1ccc(O)cc1)C(N)=O` [Analog 2] (I: {DOTA}-INPCYRLRY-NH2 / II: {DOTA}-INPCYRLRY-NH2; disulfide I:4-II:4) are 143 ± 37 nM and over 1000 nM. In the case of `CCCC[C@H](NC(=O)[C@H](CCCNC(=N)N)NC(=O)[C@H](Cc1c[nH]c2ccccc12)NC(=O)[C@H](CSSC[C@H](NC(=O)[C@@H]1CCCN1C(=O)[C@H](CN)NC(=O)[C@@H](N)[C@@H](C)CC)C(=O)N[C@@H](Cc1c[nH]c2ccccc12)C(=O)N[C@@H](CCCNC(=N)N)C(=O)N[C@@H](CCCC)C(=O)N[C@@H](CCCNC(=N)N)C(=O)N[C@@H](Cc1ccc(O)cc1)C(N)=O)NC(=O)[C@@H]1CCCN1C(=O)[C@H](CN)NC(=O)[C@@H](N)[C@@H](C)CC)C(=O)N[C@@H](CCCNC(=N)N)C(=O)N[C@@H](Cc1ccc(O)cc1)C(N)=O` [Analog 5] (I: H-I[Dap]PCWR[Nle]RY-NH2 / II: H-I[Dap]PCWR[Nle]RY-NH2; disulfide I:4-II:4), the IC50 in experiment [1] is 143 ± 20 nM; in experiment [2], over 1000 nM. In the same order, the values of `CCCC[C@H](NC(=O)[C@H](CCCNC(=N)N)NC(=O)[C@H](Cc1c[nH]c2ccccc12)NC(=O)[C@H](CSSC[C@H](NC(=O)[C@@H]1CCCN1C(=O)[C@H](CC(N)=O)NC(=O)[C@@H](N)[C@@H](C)CC)C(=O)N[C@@H](Cc1c[nH]c2ccccc12)C(=O)N[C@@H](CCCNC(=N)N)C(=O)N[C@@H](CCCC)C(=O)N[C@@H](CCCNC(=N)N)C(=O)N[C@@H](Cc1ccc(O)cc1)C(N)=O)NC(=O)[C@@H]1CCCN1C(=O)[C@H](CN)NC(=O)[C@@H](N)[C@@H](C)CC)C(=O)N[C@@H](CCCNC(=N)N)C(=O)N[C@@H](Cc1ccc(O)cc1)C(N)=O` [Analog 7] (I: H-I[Dap]PCWR[Nle]RY-NH2 / II: H-INPCWR[Nle]RY-NH2; disulfide I:4-II:4) are 19 ± 5 nM and over 1000 nM.

Take “hPYY: non-labeled human peptide YY, used as control in the binding assay [reference compound]”: in experiment [1] (SK-N-MC cell membrane pellet sections), the “Y1 binding affinity in words (displacement of 125I-hPYY)” value is “high-affinity displacements of ^125I-hPYY”.

Source of the values: PMC3250963, “Novel dimeric DOTA-coupled peptidic Y1-receptor antagonists for targeting of neuropeptide Y receptor-expressing cancers” (EJNMMI Research, 2011).
